In BindingDB's records for doi:10.1021/jm980707k (University of Alabama At Birmingham, 1999):

experiment: In vitro inhibitory activity against H1N9 Influenza A Neuraminidase.

Point of comparison: `CCC(CC)Nc1cc(C(=O)O)ccc1N1C(=O)CCC1(CO)CO` [4-[2,2-bis(hydroxymethyl)-5-oxopyrrolidin-1-yl]-3-[(1-ethylpropyl)amino]benzoic acid], IC50 0.048 µM. Against it:
- O=C(O)c1ccc(N2C(=O)CCC2(CO)CO)cc1 [4-(2,2-Bis-hydroxymethyl-5-oxo-pyrrolidin-1-yl)-benzoic acid anion] — 16000-fold higher, 760 µM
- NCC1CCC(=O)N1c1ccc(C(=O)O)cc1N=C(N)N (stereo unspecified) [4-(2-Aminomethyl-5-oxo-pyrrolidin-1-yl)-3-guanidino-benzoic acid] — 54000-fold higher, 2600 µM
- CCC(CC)Nc1cc(C(=O)O)ccc1N1CCCC1=O [3-(1-Ethyl-propylamino)-4-(2-oxo-pyrrolidin-1-yl)-benzoic acid] — 4600-fold higher, 222 µM
- NC(N)=Nc1cc(C(=O)O)ccc1N1C(=O)CCC1(CO)CO [4-(2,2-Bis-hydroxymethyl-5-oxo-pyrrolidin-1-yl)-3-guanidino-benzoic acid] — 100-fold higher, 5 µM
- CC(=O)N[C@@H]1[C@@H]([C@H](O)[C@H](O)CO)O[C@](O)(C(=O)O)C[C@H]1O [(2S,4R,5S,6S)-5-Acetylamino-2,4-dihydroxy-6-((1R,2R)-1,2,3-trihydroxy-propyl)-tetrahydro-pyran-2-carboxylic acid] — 210-fold higher, 10 µM
